In PMC8002512, “IRE1α Is a Therapeutic Target for Cystic Fibrosis Airway Inflammation” (International Journal of Molecular Sciences, 2021):

Biological target: T1, IRE1α (Homo sapiens, UniProt O75460)
T1 construct: gene ERN1; cytoplasmic portion, kinase and RNase domains, residues 547-977 of NP_001424, N-terminal His-tagged (Sf9)
Assay: TR-FRET (LanthaScreen) displacement of tracer […] from purified His-tagged IRE1α
Type: binding

T1 sequence (O75460 547-977): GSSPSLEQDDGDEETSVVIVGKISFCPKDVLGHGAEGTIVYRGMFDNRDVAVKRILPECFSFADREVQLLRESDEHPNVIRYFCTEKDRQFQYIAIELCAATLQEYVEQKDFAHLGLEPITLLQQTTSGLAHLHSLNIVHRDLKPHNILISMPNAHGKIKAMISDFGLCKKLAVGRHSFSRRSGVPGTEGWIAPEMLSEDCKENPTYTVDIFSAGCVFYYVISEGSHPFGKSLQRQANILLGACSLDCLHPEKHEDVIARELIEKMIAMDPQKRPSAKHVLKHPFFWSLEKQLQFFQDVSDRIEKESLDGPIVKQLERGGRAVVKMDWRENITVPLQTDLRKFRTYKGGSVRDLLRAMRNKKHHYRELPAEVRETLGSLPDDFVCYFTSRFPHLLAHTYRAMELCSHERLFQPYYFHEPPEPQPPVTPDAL

## CC(C)(C)c1nc(-c2ccc(NC(=O)Nc3cccc(C(F)(F)F)c3)c3ccccc23)c2c(N)nccn12 [KIRA6]
  Kd: 280 nM
